Patent publication US6022857A, “Radiolabeled compounds for thrombus imaging” (Diatide, Inc., priority 1998, dated 2000)
“And” between values parts separate entries of the source, which are not always exact repeats. Equal values may be shown once. Read-outs that look alike come from different tables or passages of the source. Where no end group is shown, it is not given here. The star is where a group is joined. Acm = CC(=O)NC*

Assays:
[1] = tested on: human platelets in platelet-rich plasma; assay: Platelet aggregation inhibition assay (ADP-induced, platelet-rich plasma); type: cell-based
Protocol: Platelet aggregation studies were performed essentially as described by Zucker (1989, Methods in Enzymol. 169: 117-133). Briefly, platelet aggregation was assayed with or without putative platelet aggregation inhibitory compounds using fresh human platelet-rich plasma, comprising 300,000 platelets per microliter. Platelet aggregation was induced by the addition of a solution of adenosine diphosphate to a final concentration of 10 to 15 micromolar, and the extent of platelet aggregation monitored using a Bio/Data aggregometer (Bio/Data Corp., Horsham, Pa.). The concentrations of platelet aggregation inhibitory compounds used were varied from 0.1 to 500 μg/mL. The concentration of inhibitor that reduced the extent of platelet aggregation by 50% (defined as the IC50) was determined from plots of inhibitor concentration versus extent of platelet aggregation. An inhibition curve for peptide RGDS was determined for each batch of platelets tested.
**concentration of reagent that inhibits by 50% the aggregation of human
platelets in plateletrich plasma induced to aggregate by the addition of
adenosine diphosphate (ADP)

[2] = tested on: femoral vein thrombus; assay: Canine model of DVT: thrombus uptake and imaging of Tc-99m labeled reagent; type: in vivo; details: approximately 4 h postinjection
Protocol: *ratio of (% injected dose/g in a femoral vein thrombus)/(% injected
dose/g in blood) at approximately 4 h postinjection of each Tc99 m labele
reagent in a canine model of DVT

[3] = tested on: deep-vein thrombi; assay: Pilot human clinical study: scintigraphic imaging of deep-vein thrombi; type: in vivo; details: Tc-99m labeled
Protocol: A series of experiments comprising a pilot human clinical study of one embodiment of the scintigraphic imaging agents of the invention, designated P280, having the chemical structure:
were performed. These experiments were performed on 9 human patients (6 males, 3 females), ages 30 to 60 years and weighing 63 to 100 kg. Each of the patients presented clinically with the symptoms of deep-vein thrombosis, and the diagnosis was confirmed by physical work-up, ultrasonography and/or contrast venography.
Each patient in the study was administered 10-22 mCi Tc-99m labeled P280 comprising approximately 0.25 mg peptide, by intravenous injection. Scintigraphic imaging was then performed over four hours using a large field-of-view gamma camera equipped with a high-resolution collimator (photopeaked at 140 keV, with a 20%±window). Gamma camera imaging was commenced simultaneously with injection. Anterior images followed by posterior images over the legs were acquired over the first hour, then at 2 and 4 hours post-injection.

[4] = tested on: femoral vein thrombus; assay: Canine model of DVT: thrombus uptake and imaging of Tc-99m labeled reagent; details: in vivo canine model system
[5] = human platelet-rich plasma, aggregation induced by ADP, read-out: IC50 (concentration of reagent that inhibits by 50% the aggregation of human platelets)

IC50 [1, 5] | Substance | Clot/Blood: ratio of (% injected dose/g in a femoral vein thrombus)/(% injected dose/g in blood) [2] | other results
26 µM | CAcm GCAcm RRRRRRRRRGDV (SEQ ID NO: 5) (C(Acm)GC(Acm)RRRRRRRRRGDV) [Peptide P32] | 1.2 ± 0.2 | 
0.3 µM | CH2 CO--YD ApcGDCGGGCAm GCAcm amide [Peptide P154] | 2.0 ± 0.5 | 
15 µM | GRDGVRGDFCAcm GCAcm amide(SEQ ID NO: 8) (GRDGVRGDFC(Acm)GC(Acm)-NH2; N-terminus assumed; SMILES CC(=O)NCSC[C@H](NC(=O)CNC(=O)[C@H](CSCNC(C)=O)NC(=O)[C@H](Cc1ccccc1)NC(=O)[C@H](CC(=O)O)NC(=O)CNC(=O)[C@H](CCCNC(=N)N)NC(=O)[C@@H](NC(=O)CNC(=O)[C@H](CC(=O)O)NC(=O)[C@H](CCCNC(=N)N)NC(=O)CN)C(C)C)C(N)=O) [Peptide P98] | 1.7 | 
25 µM | CH2 CO--YD RGDCCAcm GCAcm amide [Peptide P81] | 1.8 ± 0.6 | 
0.85 µM | CH2 CO--YD ApcGDCGGCAcm GCAcm GGC-amide [Peptide P246] | 4.4 ± 1.8 | 
1.3 µM | CH2 CO--YD RGDCGGCAcm GCAcm amide [Peptide P143] | 1.4 | 
23 µM | AcSYGRGDVRGDFKCAcm GCAcm (SEQ ID NO: 6) (Ac-SYGRGDVRGDFKC(Acm)GC(Acm)) [Peptide P47] | 1.0 | 
0.081 µM | (CH2 COYD.Apc.GDCGGCAcm GCAcm GGCamide)2 (CH2 CO)2 K(Nε-K)GCamide [Peptide P667] | 5.9 and 5.0 | 
8 µM | GRGDVRGDFKCAcm GCAcm amide (SEQ ID NO: 3) (GRGDVRGDFKC(Acm)GC(Acm)-NH2; N-terminus assumed; SMILES CC(=O)NCSC[C@H](NC(=O)CNC(=O)[C@H](CSCNC(C)=O)NC(=O)[C@H](CCCCN)NC(=O)[C@H](Cc1ccccc1)NC(=O)[C@H](CC(=O)O)NC(=O)CNC(=O)[C@H](CCCNC(=N)N)NC(=O)[C@@H](NC(=O)[C@H](CC(=O)O)NC(=O)CNC(=O)[C@H](CCCNC(=N)N)NC(=O)CN)C(C)C)C(N)=O) [Peptide P97] | 1.0 | 
 | (CH2 CO.YD ApcGDCGGCAcm GCAcm GGC.amide)2 -BSME [Peptide P280] |  | IC50 ([1]; unlabeled reagent, read-out: IC50, platelet aggregation inhibition): 0.087 µM; patients in whom thrombi were visualized ([3]; 9 patients with confirmed DVT): 8 of the 9; toxicity or other adverse effects ([3]; 10-22 mCi, approximately 0.25 mg peptide i.v., human patients): no toxicity or other adverse effects; time after injection at which thrombus visualization was evident ([3]; human patients with DVT): 15 to 30 min; time post-injection for which thrombus remained visible ([3]; human patients with DVT): 4 to 24 h; scintigraphic images of deep-vein thrombi ([3]; humans in vivo): excellent scintigraphic images; injected dose remaining in the circulation ([3]; intravenous, 1 hour post-injection, human patients): less than 10%; injected dose cleared by the kidneys ([3]; intravenous, human patients): 60-70%; scintigraphic images of venous thrombi [4]: excellent scintigraphic images

Substance | IC50 [1, 5] | Clot/Blood: ratio of (% injected dose/g in a femoral vein thrombus)/(% injected dose/g in blood) [2] | other results
(CH2 CO--YD ApcGDCGGCAcm GCAcm GGC-amide)3 -TSEA [Peptide P317] | 0.036 µM | 3.8 ± 2.2 | 
AcSYGRGDVRGDFKCTCCA (SEQ ID NO: 7) (Ac-SYGRGDVRGDFKCTCCA; cysteine pairing not given here) [Peptide P63] | 19 µM | 1.7 | 
(CH2 CO--YD ApcGDCKGCAcm GCAcm GGC-amide)2 -BSME [Peptide P381] | 0.035 µM | 2.5 | 
(CH2 CO--YD ApcGDCGGCAcm GCAcm GGC-amide)2 -(BAT-BS) [Peptide P357] | 0.079 µM | 6.3 ± 3.4 | 
